Assay results as given in article PMC6361926, “A chemical approach for global protein knockdown from mice to non-human primates” (Cell Discovery, 2019).

Target: Bruton's tyrosine kinase (BTK) (Mus musculus, UniProt P35991)
Assay: PROTAC degradation of BTK in mouse tissues in vivo, immunoblot
Assay type: cell-based

Chain of Bruton's tyrosine kinase (BTK) (P35991 2-659): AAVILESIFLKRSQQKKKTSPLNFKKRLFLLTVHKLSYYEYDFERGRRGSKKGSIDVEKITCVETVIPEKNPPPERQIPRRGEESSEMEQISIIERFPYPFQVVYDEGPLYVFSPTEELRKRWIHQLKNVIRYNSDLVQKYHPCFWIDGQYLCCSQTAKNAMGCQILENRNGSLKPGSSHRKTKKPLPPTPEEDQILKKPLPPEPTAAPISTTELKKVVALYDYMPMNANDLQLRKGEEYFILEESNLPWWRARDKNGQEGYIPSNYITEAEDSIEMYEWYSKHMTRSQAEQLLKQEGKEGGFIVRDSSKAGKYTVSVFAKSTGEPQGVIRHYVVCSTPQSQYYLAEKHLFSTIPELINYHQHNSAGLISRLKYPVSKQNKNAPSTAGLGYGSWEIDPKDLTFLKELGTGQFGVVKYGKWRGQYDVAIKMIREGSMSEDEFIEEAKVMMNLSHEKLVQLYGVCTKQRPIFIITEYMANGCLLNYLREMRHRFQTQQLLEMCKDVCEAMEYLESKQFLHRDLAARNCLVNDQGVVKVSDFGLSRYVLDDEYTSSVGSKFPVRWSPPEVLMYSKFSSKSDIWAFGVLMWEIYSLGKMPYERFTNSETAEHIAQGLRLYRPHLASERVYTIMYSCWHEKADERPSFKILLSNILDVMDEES

Nc1ncnc2c1c(-c1ccc(Oc3ccccc3)cc1)nn2[C@@H]1CCCN(C(=O)CCCc2cn(CCOCCOCCNc3cccc4c3C(=O)N(C3CCC(=O)NC3=O)C4=O)nn2)C1 (stereo partly shown) [P13IS]
PROTAC degradation of BTK in mouse tissues in vivo, immunoblot: BTK in adipose, thymus, abdominal lymph node, and axillary lymph node was degraded efficiently
